Test results from PMC4097363, “Trace amines inhibit insect odorant receptor function through antagonism of the co-receptor subunit” (F1000Research, 2014).
Entries after “also recorded” stand apart in the source; their conditions may differ. Like-named read-outs stand apart in the source and are kept apart here.

Key:
[1] = target: Agam\Orco+Agam\Or65 (Anopheles gambiae, UniProt Q7QCC7); test: Inhibition of odorant activation of heteromeric OR in Xenopus oocytes; type: cell-based; conditions: for IC50: IC 50 for inhibition of responses to eugenol; for inhibition of odorant activation of the OR: activated by 100nM eugenol, 10µM tryptamine or 100µM tyramine
Sequence of Agam\Orco+Agam\Or65 (Q7QCC7 whole entry): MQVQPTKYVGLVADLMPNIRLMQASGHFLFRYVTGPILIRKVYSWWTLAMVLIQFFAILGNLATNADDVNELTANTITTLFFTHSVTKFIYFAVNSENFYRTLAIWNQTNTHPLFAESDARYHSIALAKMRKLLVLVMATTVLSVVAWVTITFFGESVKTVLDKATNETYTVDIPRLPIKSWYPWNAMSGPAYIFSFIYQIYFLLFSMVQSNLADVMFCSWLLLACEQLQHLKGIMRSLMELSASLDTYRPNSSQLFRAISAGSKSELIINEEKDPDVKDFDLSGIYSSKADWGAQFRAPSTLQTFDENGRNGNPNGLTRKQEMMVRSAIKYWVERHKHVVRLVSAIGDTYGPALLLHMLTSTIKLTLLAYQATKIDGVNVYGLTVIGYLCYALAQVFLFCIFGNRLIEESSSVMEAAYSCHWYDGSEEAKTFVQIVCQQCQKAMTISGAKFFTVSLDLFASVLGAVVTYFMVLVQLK
Description: (§1) Follicle cells were removed by treatment with collagenase B (Boehringer Mannheim) for 2 hours at room temperature. Capped cRNA encoding each OR subunit was generated using mMessage mMachine kits (Ambion). For heteromeric ORs, 25 ng of cRNA encoding each OR subunit was injected into Stage V-VI Xenopus oocytes. For expression of Orco homomers, 50 ng of cRNA was injected. Oocytes were incubated at 18°C in Barth's saline (in mM: 88 NaCl, 1 KCl, 2.4 NaHCO 3, 0.3 CaNO 3, 0.41 CaCl 2, 0.82 MgSO 4, 15 HEPES, pH 7.6, and 150µg/ml ceftazidime) for 2–5 days prior to electrophysiological recording.
(§2) Odorant and Orco ligand induced currents were recorded under two-electrode voltage clamp, using an automated parallel electrophysiology system (OpusExpress 6000A, Molecular Devices). Oocytes were perfused with ND96 (in mM: 96 NaCl, 2 KCl, 1 CaCl 2, 1 MgCl 2, 5 HEPES, pH 7.5). Orco ligands were prepared as 50 or 100 mM stock solutions in DMSO and then diluted into ND96 on the day of the experiment. Odorants were prepared as 100 mM stock solutions in DMSO and then diluted into ND96. Unless otherwise noted, applications were for 60 sec at a flow rate of 1.0 ml/min, with extensive washing in ND96 at 4.6 ml/min between applications. Micropipettes were filled with 3 M KCl and had resistances of 0.2–2.0 MΩ. The holding potential was -70 mV. Current responses, filtered (4-pole, Bessel, low pass) at 20 Hz (-3 db) and sampled at 100 Hz, were captured and stored using OpusXpress 1.1 software (Molecular Devices).
(§3) To measure inhibition of odorant activation of heteromeric ORs ( Figures 4B, 4C, Figure 5B and Figure 6), oocytes were exposed to a 30 sec application of odorant followed by a 10 min wash. Oocytes were then exposed to a 90 sec application of tryptamine or tyramine, immediately followed by a 30 sec co-application of tryptamine or tyramine and odorant. The current response in the presence of antagonist candidate was compared to the preceding response to odorant alone and expressed as a percentage. […] For this reason, we then re-normalized antagonism data to the value obtained when the assay was run in the absence of antagonist candidate (sham). In the “sham” assay, oocytes were exposed to a 30 sec application of odorant followed by a 10 min wash and then exposed to a 90 sec application of ND96 (no antagonist candidate), immediately followed by a 30 sec application of odorant. The second odorant response was compared to the first response and expressed as a percentage. In Figure 4B, 4C, Figure 5B and Figure 6, the sham value for 100nM eugenol was 57 ± 3% (mean ± SEM, n = 3). In Figure 5B, the sham value for 10nM eugenol was 93 ± 4% (n = 4). In Figure 4B and C, the sham value for 1µM Z11-14:OAc was 82 ± 6% (n = 6) and the sham value for 150µM 2-phenylethanol was 92 ± 2% (n = 3). In Figure 6, the sham value for 3µM L-fenchone was 83 ± 1% (n = 3), the sham value for 40µM acetophenone was 92 ± 1% (n = 3), the sham value for 70µM geranyl acetate was 97 ± 1% (n = 3), the sham value for 10µM 6-methyl-5-hepten-2-one was 94 ± 2% (n = 3) and the sham value for 3µM 2-nonanone was 81 ± 1% (n = 3).
Initial analysis of electrophysiological data was done using Clampfit 9.1 software (Molecular Devices). Curve fitting and statistical analyses were done using Prism 5 (Graphpad). […]

[2] = target: Cqui\Orco (Culex quinquefasciatus, UniProt Q309I4); test: Antagonism of OLC12 activation of Orco in Xenopus oocytes; type: cell-based; conditions: for inhibition at 100 µM: Cqui\Orco activated by 30µM OLC12 (~EC5), 100µM of each amine, mean ± SEM, n = 3-10, read-out: inhibition of the OLC12 response; for IC50: read-out: IC 50 for inhibition of Cqui\Orco activation
Sequence of Cqui\Orco (Q309I4 entry or part of it): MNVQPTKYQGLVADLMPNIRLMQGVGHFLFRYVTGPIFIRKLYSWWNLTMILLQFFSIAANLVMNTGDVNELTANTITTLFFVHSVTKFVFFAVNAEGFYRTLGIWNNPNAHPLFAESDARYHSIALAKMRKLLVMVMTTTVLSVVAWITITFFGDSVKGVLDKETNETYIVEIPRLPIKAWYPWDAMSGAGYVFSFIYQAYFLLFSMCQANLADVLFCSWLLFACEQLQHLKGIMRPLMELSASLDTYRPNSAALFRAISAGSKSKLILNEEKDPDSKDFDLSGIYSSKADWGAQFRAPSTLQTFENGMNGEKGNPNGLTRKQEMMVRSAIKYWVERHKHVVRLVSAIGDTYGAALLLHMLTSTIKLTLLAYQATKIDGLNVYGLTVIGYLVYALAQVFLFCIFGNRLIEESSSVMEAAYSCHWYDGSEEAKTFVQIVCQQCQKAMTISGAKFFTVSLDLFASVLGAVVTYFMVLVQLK
Description: as §1, §2
To screen for agonist activity, oocytes were exposed to 30 sec applications of candidate compounds with 5 min washes between applications ( Figure 2A). For the concentration-response protocol ( Table 1), applications were for 20 sec at a flow rate of 1.65 ml/min. To measure antagonist activity at Orco ( Figure 2B, 2C, Figure 3, Figure 4A and Figure 5A), oocytes were exposed to two 60 sec applications of the synthetic Orco agonist OLC12 (2-((4-Ethyl-5-(4-pyridinyl)-4H-1,2,4-triazol-3-yl)sulfanyl)-N-(4-isopropylphenyl)acetamide) with 4 min washes between applications. Oocytes were then exposed to a 90 sec application of antagonist candidate, immediately followed by a 60 sec co-application of antagonist candidate and OLC12. The current response in the presence of antagonist candidate was compared to the mean of the preceding two responses to OLC12 alone and is presented as a percentage.
Initial analysis of electrophysiological data was done using Clampfit 9.1 software (Molecular Devices). Curve fitting and statistical analyses were done using Prism 5 (Graphpad). Concentration-inhibition data were fit to the equation: I = I max/(1+ (X/IC 50) ^n) where I represents the current response at a given concentration of inhibitor, X; I max is the maximal response in the absence of inhibitor; IC 50 is the concentration of inhibitor present that still allows a half maximal response from odorant; n is the apparent Hill coefficient. Concentration-response data were fit to the equation: I = I max/(1+(EC 50/X) ^n) where I represents the current response at a given concentration of odorant, X; I max is the maximal response; EC 50 is the concentration of agonist yielding a half maximal response; n is the apparent Hill coefficient. Statistical significance (p<0.05) was assessed using a two-tailed unpaired t test, an F test, or a one-way analysis of variance followed by the Dunnett's post-test, as appropriate.

[3] = tested on: Agam\Orco+Agam\Or31; test: Inhibition of odorant activation of heteromeric OR in Xenopus oocytes; type: cell-based, Anopheles gambiae; conditions: activated by 70µM geranyl acetate; 10µM tryptamine or 100µM tyramine
Description: as §1, §2, §3

[4] = tested on: Agam\Orco+Agam\Or27; test: as above; type: cell-based, Anopheles gambiae; conditions: activated by 3µM L-fenchone; 10µM tryptamine or 100µM tyramine
Description: as §1, §2, §3

[5] = tested on: Agam\Orco+Agam\Or39; test: as above; type: cell-based, Anopheles gambiae; conditions: activated by 10µM 6-methyl-5-hepten-2-one; 10µM tryptamine or 100µM tyramine
Description: as §1, §2, §3

[6] = tested on: Agam\Orco+Agam\Or28; test: as above; type: cell-based, Anopheles gambiae; conditions: activated by 40µM acetophenone; 10µM tryptamine or 100µM tyramine
Description: as §1, §2, §3

SMILES | mechanism of inhibition of odorant activation ([1]; Agam\Orco+Agam\Or65, 10nM vs 100nM eugenol) | IC50 ([1]; Agam\Orco+Agam\Or65, 10nM eugenol) [µM] | IC50 ([1]; Agam\Orco+Agam\Or65, 100nM eugenol) [µM] | inhibition of odorant activation of the OR [1] | inhibition at 100 µM [2] [%] | inhibition of OLC12 activation of Orco ([2]; Cqui\Orco, 30µM OLC12, 10µM tryptamine) | mechanism of antagonism of Cqui\Orco ([2]; OLC12 increased from 30µM to 100µM) | IC50 ([2]; activated by 30µM OLC12) [µM] | IC50 ([2]; activated by 100µM OLC12) [µM] | inhibition of odorant activation of the OR [3] | inhibition of odorant activation of the OR [4] | inhibition of odorant activation of the OR [5] | inhibition of odorant activation of the OR [6] | less potent than tryptamine (IC50 ratio) ([2]; Cqui\Orco activated by 30µM OLC12) [fold]
NCCc1c[nH]c2ccccc12 [tryptamine] | non-competitively inhibits odorant activation | 3.1 ± 0.4 | 3.2 ± 0.3 | substantial inhibition of each receptor; also recorded: able to inhibit odorant activation of the receptor | 92 ± 2 | inhibited OLC12 activation of Orco from each of these three insect species | competitive antagonist | 4.7 ± 0.7 | 143 ± 18 | able to inhibit odorant activation of the receptor | able to inhibit odorant activation of the receptor | able to inhibit odorant activation of the receptor | able to inhibit odorant activation of the receptor | 
NCCc1ccc(O)cc1 [tyramine] |  |  |  | able to reduce odorant activation of these ORs, but was less effective than tryptamine; also recorded: able to inhibit odorant activation of each of these receptors, but was less effective than tryptamine | 40 ± 5 |  |  | 157 ± 22 |  | able to inhibit odorant activation of each of these receptors, but was less effective than tryptamine | able to inhibit odorant activation of each of these receptors, but was less effective than tryptamine | able to inhibit odorant activation of each of these receptors, but was less effective than tryptamine | able to inhibit odorant activation of each of these receptors, but was less effective than tryptamine | 33
